Compared with `O=C(O)c1cc2ncnn2nc1NCCCN1CCC(OC(c2ccccc2)c2ccccc2)CC1`, `NC(=O)C1CCCN1c1nc(-c2ccccc2)nc2[nH]c(CN3CCC(O)(c4ccccc4)CC3)cc12` (stereo not given) is higher in melting point: 207 to 209 °C for the first, 234 to 235 °C for the second.

Compared with `NCC#Cc1cnc2c(c1)N(Cc1cc(Cl)ccc1Cl)CCN2`, `OC1CCN(c2ncc(-c3ccc(Cl)cc3)cn2)CC1` is lower in melting point: 183 °C for the first, 168 to 170 °C for the second.

First: O=C(O)C1=Cc2cc3c(cc2OC1C(F)(F)F)OCO3 (stereo not given)
Second: CCOC(=O)c1cn(C)nc1Nc1ccc(C(F)(F)F)cc1N
The melting point of the first is higher: 246 to 248 °C for the first, 162 °C for the second.

First: CCOC(=O)c1nc2c(Cl)nc3cc(C(F)(F)F)ccc3n2c1CBr
Second: CCNC(=O)n1nc(Oc2ncc(C(F)(F)F)cc2Cl)c(Br)c1C
The melting point of the first is higher: 196 to 198 °C for the first, 123 to 125 °C for the second.

First: CCOC(=O)c1cc2cc(-c3ccc(N)cc3)ccc2o1
Second: CCCCc1oc2ccccc2c1-c1ccc(-c2ccc(OCC(=O)O)cc2)cc1
The melting point of the first is lower: 95 to 97 °C for the first, 126 to 128 °C for the second.

First: CCOC(=O)c1cc2c3ccccc3n(C)c2s1
Second: CC(=O)NC[C@@H]1CCCc2cc(S(=O)(=O)c3ccccc3)cc(F)c21
The melting point of the first is lower: 99 to 100 °C for the first, 152 to 154 °C for the second.

First: CC(C)(C)OC(=O)Nc1cc(OC(C)(C)C)c(-c2ccc(F)cc2)cc1N
Second: CC(C)NC(=O)c1c(F)cccc1S(=O)C(C)(C)C (stereo not given)
The melting point of the first is higher: 139 °C for the first, 120 to 135 °C for the second.

Compared with `O=[N+]([O-])c1ccc(F)cc1OCc1ccccc1`, `O=C(NCC1CN(Cc2ccccc2)CCO1)c1cccc2c1OCO2` (stereo not given) is higher in melting point: 52 to 54 °C for the first, 144 to 146 °C for the second.

First: CCCn1cc2c(C3C(=O)Nc4ccc(S(=O)(=O)N(C)C)cc43)nc(NCCN(C)C)nc2n1 (stereo not given)
Second: CCCCOc1ccc2c(O)c(C(=O)NCC(=O)O)ncc2c1
The melting point of the first is higher: 259 to 263 °C for the first, 151 to 153 °C for the second.

First: O=C1NC(=O)c2c1c(-c1ccccc1Cl)cc1c2c2cc(O)ccc2n1CC(O)CO (stereo not given)
Second: CCC(CN1C(=O)c2ccccc2C1=O)N1CCC(c2noc3cc(F)ccc23)CC1 (stereo not given)
The melting point of the first is higher: 305 to 309 °C for the first, 86 to 88 °C for the second.

First: CCN1C(=O)C(=CC=C2C=C(c3ccc(OC)cc3)C=C3N2c2ccccc2C3(C)C)SC1=S
Second: CC(C)n1c(/C=C/COc2ccc(C(=O)C(=O)O)cc2)c(-c2ccc(F)cc2)c2ccccc21
The melting point of the first is higher: 210 to 211 °C for the first, 151 to 152 °C for the second.

First: Cc1cccc(C)c1N(Cn1cnc(Cl)c1Cl)C(=O)CCl
Second: CCOC(=O)C1(O)CC(c2ccncc2)=NNC1=O (stereo not given)
The melting point of the first is lower: 99 °C for the first, 160 to 163 °C for the second.

Compared with `O=C(Nc1ccc(C(F)(F)F)cc1)Nc1ccc2ncccc2c1`, `O=C(NCCO)c1ccc(-c2cccc3cc(Cc4cccc(C(F)(F)F)c4)sc23)nc1` is lower in melting point: 259 to 263 °C for the first, 160 to 161 °C for the second.

Compared with `COc1nc(OC)c(C=O)c(N(C)C)n1`, `COc1ccc(OC)c2c1C(C)(C)CCC2(C)C` is higher in melting point: 150 °C for the first, 195 °C for the second.

Compared with `NC1(C(=O)c2ccccc2)CCSC1` (stereo not given), `O=CN(Cc1cccs1)C1(c2ccc(Cl)cc2)CCC1` is lower in melting point: 147 to 149 °C for the first, 114 to 119 °C for the second.

First: CC1N=C(c2ccccc2F)c2cc(Br)ccc2NC1=O (stereo not given)
Second: Cc1cc(=O)[nH]c2ccc(OCCCN3CCN(Cc4ccc(F)cc4)CC3)cc12
The melting point of the first is higher: 183 to 185 °C for the first, 178 to 180 °C for the second.

First: CC1(C)CC(O)CC(C)(C)N1OC1C=CCCC1 (stereo not given)
Second: COc1ccc(-c2sc3c(c2OC(C)=O)CCCC3)cc1
The melting point of the first is lower: 65 to 66.5 °C for the first, 81 °C for the second.

Compared with `CS(=O)(=O)c1nccn1CC(=O)O`, `CO/C=C(/C(=O)OC)n1cccc1C=O` is lower in melting point: 218 to 219 °C for the first, 58 to 59 °C for the second.

Going from `Nc1c(SC(F)(F)F)nc(Br)n1-c1c(Cl)cc(C(F)(F)F)cc1Cl` to `Cc1nc(NC(=O)c2cnn3c(C(F)F)cc(-c4ccc(C(F)(F)F)cc4)nc23)sc1S(N)(=O)=O`, the melting point rises from 154 °C to 284 °C.

Compared with `Nc1nc2ccccc2c2c1nc(CCCOc1ccccc1)n2CCCNC(=O)N1CCOCC1`, `COc1cccc(Cn2c(C(=O)O)c(-c3ccc(OCC4CC4)cc3)c3cc(OCc4ccccc4)ccc32)c1` is lower in melting point: 199 to 200 °C for the first, 185 to 187 °C for the second.
